# Where “and” joins values, the source holds several entries; their conditions need not be identical. Equal values may be shown once.
# Tests used:
# [1] = target: T1, Solute carrier organic anion transporter family member 1B1 (Homo sapiens, UniProt Q9Y6L6); details: chinese hamster, cho, 10 µM
# T1 sequence (Q9Y6L6 whole entry): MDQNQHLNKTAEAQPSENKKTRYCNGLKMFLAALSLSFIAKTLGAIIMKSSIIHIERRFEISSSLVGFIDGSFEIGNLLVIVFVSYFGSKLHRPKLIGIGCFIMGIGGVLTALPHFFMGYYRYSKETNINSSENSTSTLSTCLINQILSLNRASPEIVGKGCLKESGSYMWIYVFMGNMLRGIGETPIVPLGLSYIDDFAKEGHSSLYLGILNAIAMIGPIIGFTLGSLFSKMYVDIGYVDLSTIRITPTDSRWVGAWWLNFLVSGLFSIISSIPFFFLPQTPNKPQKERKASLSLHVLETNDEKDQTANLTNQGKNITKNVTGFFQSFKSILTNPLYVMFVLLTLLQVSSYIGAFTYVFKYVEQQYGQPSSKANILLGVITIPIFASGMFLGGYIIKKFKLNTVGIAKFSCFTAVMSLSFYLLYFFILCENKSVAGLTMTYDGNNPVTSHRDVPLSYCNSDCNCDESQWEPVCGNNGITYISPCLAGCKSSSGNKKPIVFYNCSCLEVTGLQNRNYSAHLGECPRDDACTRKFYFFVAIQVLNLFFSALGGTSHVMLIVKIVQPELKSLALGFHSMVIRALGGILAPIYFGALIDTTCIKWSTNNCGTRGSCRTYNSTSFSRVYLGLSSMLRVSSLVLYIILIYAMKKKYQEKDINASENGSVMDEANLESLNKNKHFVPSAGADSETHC
# [2] = target: T2, Solute carrier organic anion transporter family member 1B3 (Homo sapiens, UniProt Q9NPD5); details: chinese hamster, cho, 10 µM
# T2 sequence (Q9NPD5 whole entry): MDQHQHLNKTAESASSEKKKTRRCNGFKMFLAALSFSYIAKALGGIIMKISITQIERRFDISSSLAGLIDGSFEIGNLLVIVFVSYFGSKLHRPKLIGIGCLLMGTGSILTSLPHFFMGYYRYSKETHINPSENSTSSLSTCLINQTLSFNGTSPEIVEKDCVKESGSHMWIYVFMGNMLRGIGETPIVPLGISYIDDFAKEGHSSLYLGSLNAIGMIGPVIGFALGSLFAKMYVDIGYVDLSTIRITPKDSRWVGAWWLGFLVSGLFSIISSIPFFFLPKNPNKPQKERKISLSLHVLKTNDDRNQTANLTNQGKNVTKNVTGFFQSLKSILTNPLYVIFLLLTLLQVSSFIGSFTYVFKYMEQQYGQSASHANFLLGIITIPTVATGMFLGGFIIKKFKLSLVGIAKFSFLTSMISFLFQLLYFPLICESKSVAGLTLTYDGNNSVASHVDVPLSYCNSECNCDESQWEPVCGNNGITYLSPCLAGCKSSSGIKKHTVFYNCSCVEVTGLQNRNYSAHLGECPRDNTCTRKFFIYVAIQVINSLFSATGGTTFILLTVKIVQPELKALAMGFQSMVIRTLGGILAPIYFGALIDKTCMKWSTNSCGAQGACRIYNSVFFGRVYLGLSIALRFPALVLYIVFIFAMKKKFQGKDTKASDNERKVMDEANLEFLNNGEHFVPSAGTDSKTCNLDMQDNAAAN
SMILES,residual activity [1],residual activity [2]
Br.CC(N)Cc1ccc(O)cc1 (configuration not stated) [HYDROXYAMPHETAMINE HYDROBROMIDE],85.8%,84.1%
CCN(CCO)CCCC(C)Nc1ccnc2cc(Cl)ccc12.O=S(=O)(O)O (configuration not stated) [HYDROXYCHLOROQUINE SULFATE],90.44%,90.84%
CCCCCC(=O)O[C@]1(C(C)=O)CC[C@H]2[C@@H]3CCC4=CC(=O)CC[C@]4(C)[C@H]3CC[C@@]21C [HYDROXYPROGESTERONE CAPROATE],40.59%,55.76%
Cc1cccc(C(=O)O)c1O [HYDROXYTOLUIC ACID],125.2%,110.2%
COc1ccc2c(C)cc(=O)oc2c1 [HYMECROMONE METHYL ETHER],109.2%,127.1%
O=c1[nH]cnc2nc[nH]c12 [HYPOXANTHINE],92.05%,92.8%
CC(C)Cc1ccc(C(C)C(=O)O)cc1 (configuration not stated) [IBUPROFEN],111.7%,98.25%
COc1ccc(-c2oc3c(CC=C(C)C)c(O[C@@H]4O[C@H](CO)[C@@H](O)[C@H](O)[C@H]4O)cc(O)c3c(=O)c2O[C@@H]2O[C@@H](C)[C@H](O)[C@@H](O)[C@H]2O)cc1 [ICARIIN],212.5%,126.8%
COc1cc2c(cc1-c1coc3c4c(c(OC)cc3c1=O)OC(C)(C)C=C4)OCO2 [ICHTHYNONE],105.6%,118.8%
O=[N+]([O-])NC1=NCCN1Cc1ccc(Cl)nc1 [IMIDACLOPRID],73.94%,90.03%
CN(C)CCCN1c2ccccc2CCc2ccccc21.Cl [IMIPRAMINE HYDROCHLORIDE],61.55%,92.77%
CC1Cc2ccccc2N1NC(=O)c1ccc(Cl)c(S(N)(=O)=O)c1 (configuration not stated) [INDAPAMIDE],80.06%,97.5%
O=C(O)c1cc2ccccc2[nH]1 [INDOLE-2-CARBOXYLIC ACID],121.4%,117.8%
OCc1c[nH]c2ccccc12 [INDOLE-3-CARBINOL],88.32%,121.9%
COc1ccc2c(c1)c(CC(=O)O)c(C)n2C(=O)c1ccc(Cl)cc1 [INDOMETHACIN],97.38%,50.32%
CC(C(=O)O)c1ccc(N2Cc3ccccc3C2=O)cc1 (configuration not stated) [INDOPROFEN],97.2%,96.18%
OC[C@H]1O[C@@H](n2cnc3c(O)ncnc32)[C@H](O)[C@@H]1O [INOSINE],110.7%,107.3%
O=C(CCCCC(=O)Nc1c(I)cc(I)c(C(=O)O)c1I)Nc1c(I)cc(I)c(C(=O)O)c1I [IODIPAMIDE],90.55%,60.87%
Oc1c(I)cc(I)c2cccnc12 [IODOQUINOL],86.7%,87.46%
CCC(Cc1c(I)cc(I)c(N)c1I)C(=O)O (configuration not stated) [IOPANOIC ACID],31.11%,59.57%
CC(C)Oc1ccc2c(=O)c(-c3ccccc3)coc2c1 [IPRIFLAVONE],137.7%,84.86%
CC(C)NNC(=O)c1ccncc1.O=S(=O)(O)O [IPRONIAZID SULFATE],122.7%,101.8%
CCCCC1=NC2(CCCC2)C(=O)N1Cc1ccc(-c2ccccc2-c2nnn[nH]2)cc1 [IRBESARTAN],76.05%,47.18%

SMILES,residual activity [1],residual activity [2]
COc1c(O)cc(O)cc1O [IRETOL],89.16%,111.8%
COc1cc(-c2coc3cc(O[C@@H]4O[C@H](CO)[C@@H](O)[C@H](O)[C@H]4O)c(OC)c(O)c3c2=O)cc(O)c1OC [IRIDIN],114.5%,90.79%
COc1cc(-c2coc3cc(OC)c(OC)c(OC)c3c2=O)cc(OC)c1OC [IRIGENIN TRIMETHYL ETHER],216.2%,91.27%
"COc1cc(-c2coc3cc(OCc4ccccc4)c(OC)c(O)c3c2=O)cc(O)c1OC [IRIGENIN, 7-BENZYL ETHER]",60.69%,36.98%
"COc1cc(-c2coc3cc(OCc4ccccc4)c(OC)c(O)c3c2=O)cc(OCc2ccccc2)c1OC [IRIGENIN, DIBENZYL ETHER]",92.09%,93.33%
O=c1c(-c2cc(O)c(O)c(O)c2)coc2cc(O)c(O)c(O)c12 [IRIGENOL],71.59%,92.26%
CC(=O)Oc1cc(-c2coc3cc(OC(C)=O)c(OC(C)=O)c(OC(C)=O)c3c2=O)cc(OC(C)=O)c1OC(C)=O [IRIGINOL HEXAACEATATE],102.1%,94.12%
COc1cc2occc2c2oc(=O)ccc12 [ISOBERGAPTENE],127.3%,113.9%
CC(C)Cn1c(=O)n(C)c(=O)c2[nH]cnc21 [ISOBUTYLMETHYLXANTHINE],102.2% and 126.3%,85.37% and 74.61%
COc1ccc2c(c1O)-c1c(OC)c(OC)cc3c1[C@H](C2)N(C)CC3 [ISOCORYDINE],115.2%,102.1%
Cc1cc(=O)c2c(O)cc(O)c(C)c2o1 [ISOEUGENITOL],129.2%,101%
COc1ccc(-c2cc(=O)c3c(O)cc(O)c(-c4cc(-c5cc(=O)c6c(O)cc(O)cc6o5)ccc4OC)c3o2)cc1 [ISOGINKGETIN],36.16%,63.51%
Cl.O=C(O)C1=CCNCC1 [ISOGUVACINE HYDROCHLORIDE],113.5%,103.5%
C=C1CCC2C(CC2(C)C)C(=O)CCC1O (configuration not stated) [ISOKOBUSONE],93.72%,82.48%
O=C(/C=C/c1ccc(O)cc1)c1ccc(O)cc1O [ISOLIQUIRITIGENIN],210.9%,119.2%
NNC(=O)c1ccncc1 [ISONIAZID],88.4%,98.94%
COc1cc(O)ccc1C(C)=O [ISOPEONOL],60.41%,84.87%
COc1c2ccoc2c(OC)c2oc(=O)ccc12 [ISOPIMPINELLIN],84.51%,29.02%
CC(C)[N+](C)(CCC(C(N)=O)(c1ccccc1)c1ccccc1)C(C)C.[I-] [ISOPROPAMIDE IODIDE],83.43%,91.67%
CC(C)NCC(O)c1ccc(O)c(O)c1.Cl (configuration not stated) [ISOPROTERENOL HYDROCHLORIDE],105.2%,88.72%
COC(=O)[C@H]1[C@H]2C[C@H]3c4[nH]c5cc(OC)ccc5c4CCN3C[C@H]2C[C@@H](OC(=O)c2cc(OC)c(OC)c(OC)c2)[C@@H]1OC [ISORESERPINE],38.5%,42.22%
COc1cc2c(cc1OC)[C@@H]1C(=O)c3ccc4oc(C(C)C)cc4c3O[C@@H]1CO2 [ISOROTENONE],78.62%,87.44%
C/C=C/c1ccc2c(c1)OCO2 [ISOSAFROLE],75.01%,79.83%

# Source: ChEMBL document CHEMBL3039007, “Structure-based identification of OATP1B1/3 inhibitors” (Mol Pharmacol, 2013)
